Consider 19 molecules from publication PMC7589491, “Biomimetic Artificial Membrane Permeability Assay over Franz Cell Apparatus Using BCS Model Drugs” (Pharmaceutics, 2020).

Like-named read-outs stand apart in the source and are kept apart here. Bounds are passed on as bounds.

A short description of data set [1]: Franz–PAMPA permeation study (lipid-impregnated artificial membrane on Franz cells). The settings on record: for Papp at 12 h, 10 mg/mL: PAMPA; for Permeability classification in Franz–PAMPA: metoprolol as high permeability marker, best fit method.
The conditions of data set [2]: cited from earlier work.
The conditions of data set [3]: cited from earlier work. This is another data set of the same source.
On the set-up of data set [4]: method as in PMID 25840123. To be noted: cited from earlier work.
Data set [5] concerns Caco-2 cells. To be noted: cited from earlier work.
The conditions of data set [6]: pH 7.4; cited from earlier work.
Data set [7] in a line: Dose number (D0) in donor compartment. Format: physicochemical. The settings on record: 10 mg/mL in donor, not under infinite dose conditions.
For data set [8] the following is noted: fraction of dose absorbed in humans; cited from earlier work.
For data set [9] the following is noted: cited from earlier work. This is another data set of the same source.
A short description of data set [10]: in vitro. To be noted: PAMPA.
Data set [11] in a line: Permeation across non-impregnated membrane on Franz cells. The settings on record: PAMPA, pH 7.4; as worded; read-out: Papp non-impregnated one across Franz–PAMPA. The class given is in vitro ADME.
The mark [12] stands for this setting: pH 7.4, Papp Franz–PAMPA, PBS pH 7.4, 37 °C, 500 rpm, 12 h, n = 3, best fit of linear portion (sink equation).
Where [13] appears, read: pH 7.4, Papp Non-Sink Arthurson, Franz–PAMPA data, non-sink equation.
[14] abbreviates: pH 7.4, Papp Non-Sink Arthurson.
[15] abbreviates: pH 7.4, Papp across Franz–PAMPA.

With `Nc1nc2c(ncn2COCCO)c(=O)[nH]1` [Acyclovir], the Papp at 12 h, 10 mg/mL in data set [1] (setting [12]) was 0.4 ×10⁻⁶ cm/s. In addition, the Papp at 12 h, 10 mg/mL in data set [1] (setting [13]) came to 0.4 ×10⁻⁶ cm/s. Moreover, in data set [2], the “Papp Corti” value is 9.1 ×10⁻⁶ cm/s. Moreover, in [3], the LogP was −1.7 and the “Log D pH 7.4” value is listed as −1.7. Besides, in data set [4], the “Papp Permeapad™” value is 7.9 ×10⁻⁶ cm/s. Moreover, the “Papp Caco-2” value in data set [5] is 0.3 ×10⁻⁶ cm/s.

With `CC1(C)S[C@@H]2[C@H](NC(=O)[C@H](N)c3ccc(O)cc3)C(=O)N2[C@H]1C(=O)O` [Amoxicillin], the Papp at 12 h, 10 mg/mL in data set [1] (setting [12]) stood at 0.85 ×10⁻⁶ cm/s; in [1] (setting [13]) it was 0.07 ×10⁻⁶ cm/s. In data set [6], the “Papp PAMPA pH 7,4” value is 1.5 × 10^−6 cm/s. Moreover, in data set [3], the lipophilicity (LogP) is listed as 0.9. Besides, the “Papp Caco-2” value in data set [5] is 0.8 ×10⁻⁶ cm/s.

`CC(C)NCC(O)COc1ccc(CC(N)=O)cc1` (stereo not shown) [Atenolol]: in data set [7], the D0 is at most 0.01.

As for `Cn1c(=O)c2c(ncn2C)n(C)c1=O` [Caffeine], the results for the apparent permeability coefficient (Papp) at 12 h, 10 mg/mL in [1] (setting [12]) and in data set [1] (setting [13]) were 36.2 ×10⁻⁶ cm/s and 53.3 ×10⁻⁶ cm/s, respectively. Further, the “Permeability classification in Franz–PAMPA” value (shortened to “Permeability classification”) in [1] is reported as “highly permeable”. In [7], this molecule displayed a D0 of at most 0.01. Moreover, in data set [6], the “Papp PAMPA pH 7,4” value was 10.8 × 10^−6 cm/s. The “Papp Corti” value in data set [2] is 41.1 ×10⁻⁶ cm/s. Further, the “Papp Permeapad™” value in data set [4] is 20.4 ×10⁻⁶ cm/s.

`NC(=O)N1c2ccccc2C=Cc2ccccc21` [Carbamazepine] registered a Papp at 12 h, 10 mg/mL in [1] (setting [12]) of 5.97 ×10⁻⁶ cm/s. Also, the “Fa(%)” value in data set [8] is reported as 100%. In [9], the “Intrinsic Solubility” value is reported as 0.12 mg/mL.

With `CN/C(=N/CCSCc1nc[nH]c1C)NC#N` [Cimetidine], the figures for the Papp at 12 h, 10 mg/mL in [1] (setting [12]) and in data set [1] (setting [13]) were 35.6 ×10⁻⁶ cm/s and 31 ×10⁻⁶ cm/s, respectively. The “Permeability classification” value in [1] is “highly permeable”. For the same molecule, in data set [8], the “Fa(%)” value is reported as 93%. Also, the “Intrinsic Solubility” value in [9] is 6.0 mg/mL. The “Log D pH 7.4” value in data set [3] is 0.4. Moreover, the “Papp Caco-2” value in [5] is 0.7 ×10⁻⁶ cm/s.

For `O=C(O)Cc1ccccc1Nc1c(Cl)cccc1Cl` [Diclofenac], the “Permeability classification” value was “highly permeable”. In data set [10] (pH 7.4, Papp Franz–PAMPA), this molecule had a Papp at 12 h, 10 mg/mL of 68.1 ×10⁻⁶ cm/s. For the same molecule, the apparent permeability coefficient (Papp) at 12 h, 10 mg/mL in [10] (setting [14]) was found to be 105 ×10⁻⁶ cm/s. The “Fa(%)” value in data set [8] is listed as 100%. Besides, in data set [3], the “Log D pH 7.4” value was 1.2.

`NS(=O)(=O)c1cc2c(cc1Cl)NCNS2(=O)=O` [Hydrochlorothiazide]: the Papp at 12 h, 10 mg/mL in data set [10] (pH 7.4, Papp Franz–PAMPA) is 2.74 ×10⁻⁶ cm/s; in data set [10] (setting [14]), 2.7 ×10⁻⁶ cm/s. The “Fa(%)” value in [8] is on record as 70%. Further, the “Papp PAMPA pH 7,4” value in data set [6] was 0.1 × 10^−6 cm/s. The “Papp Corti” value in data set [2] is 31 ×10⁻⁶ cm/s. In [5], the “Papp Caco-2” value was 0.5 ×10⁻⁶ cm/s.

Take `CC(C)Cc1ccc(C(C)C(=O)O)cc1` (stereo not shown) [Ibuprofen]: the “Fa(%)” value in data set [8] is recorded as 93%. Further, in [6], the “Papp PAMPA pH 7,4” value is 6.8 × 10^−6 cm/s. Further, the “Intrinsic Solubility” value in data set [9] is listed as 0.01 mg/mL. In data set [3], the LogP is reported as 3.1 and the “Log D pH 7.4” value is reported as 0.7. For the same molecule, in data set [4], the “Papp Permeapad™” value was 16.6 ×10⁻⁶ cm/s.

Regarding `CC(C(=O)O)c1cccc(C(=O)c2ccccc2)c1` (stereo not shown) [Ketoprofen], the Papp at 12 h, 10 mg/mL in data set [1] (setting [12]) was 12.1 ×10⁻⁶ cm/s. Moreover, in [6], the “Papp PAMPA pH 7,4” value is listed as 16.7 × 10^−6 cm/s. Moreover, the “Papp Corti” value in data set [2] was 42.7 ×10⁻⁶ cm/s. The “Papp Caco-2” value in [5] was 20.1 ×10⁻⁶ cm/s.

Consider `OC[C@@H](O)[C@@H](O)[C@H](O)[C@H](O)CO` [Mannitol], for which the apparent permeability coefficient (Papp) at 12 h, 10 mg/mL in [1] (setting [15]) worked out at 0.32 ×10⁻⁶ cm/s. In addition, the Papp at 10 mg/mL in data set [11] came out at 0.32 ×10⁻⁶ cm/s.

With `C[C@](N)(Cc1ccc(O)c(O)c1)C(=O)O` [Methyldopa], the “Fa(%)” value in data set [8] is 41%. In [2], the “Papp Corti” value is 3.2 ×10⁻⁶ cm/s. Moreover, in data set [3], the log partition coefficient (LogP) is on record as 0.4. Further, the “Papp Caco-2” value in [5] was 0.2 ×10⁻⁶ cm/s.

Take `COCCc1ccc(OCC(O)CNC(C)C)cc1` (stereo not shown) [Metoprolol]: the results for the apparent permeability coefficient (Papp) at 12 h, 10 mg/mL in data set [1] (setting [12]), in data set [1] (setting [13]) and in data set [1] (setting [15]) were 15.8 ×10⁻⁶ cm/s, 59 ×10⁻⁶ cm/s and 16.1 ×10⁻⁶ cm/s, respectively. The D0 in data set [7] is recorded as at most 0.01. Moreover, the “Papp PAMPA pH 7,4” value in data set [6] is on record as 3.5 × 10^−6 cm/s. Besides, the Papp at 10 mg/mL in data set [11] is 16.1 ×10⁻⁶ cm/s. For the same molecule, the “Intrinsic Solubility” value in data set [9] is given as 1000.0 mg/mL. The “Papp Corti” value in [2] was 48.1 ×10⁻⁶ cm/s. Also, the “Papp Permeapad™” value in [4] is 1 ×10⁻⁶ cm/s. Further, the “Papp Caco-2” value in data set [5] was 23.7 ×10⁻⁶ cm/s.

Molecule `COc1ccc2cc([C@H](C)C(=O)O)ccc2c1` [Naproxen] returned a D0 in [7] of at most 0.01.

For the molecule `CN1C(C(=O)Nc2ccccn2)=C(O)c2ccccc2S1(=O)=O` [Piroxicam], the apparent permeability (Papp) at 12 h, 10 mg/mL stood at 11 ×10⁻⁶ cm/s in [1] (setting [12]) and 9.6 ×10⁻⁶ cm/s in data set [1] (setting [13]). Also, the “Permeability classification” value in [1] was “low permeability drugs”. Besides, in data set [8], the “Fa(%)” value is listed as 100%. Further, in data set [6], the “Papp PAMPA pH 7,4” value is 8.2 × 10^−6 cm/s. Besides, the “Intrinsic Solubility” value in [9] is given as 0.11 mg/mL. Further, the “Log D pH 7.4” value in data set [3] is −0.07. For the same molecule, the “Papp Caco-2” value in [5] was 35.6 ×10⁻⁶ cm/s.

Take `CC(C)NCC(O)COc1cccc2ccccc12` (stereo not shown) [Propranolol]: the values for the Papp at 12 h, 10 mg/mL in [1] (setting [12]) and in [1] (setting [13]) were 33.1 ×10⁻⁶ cm/s and 88.4 ×10⁻⁶ cm/s, respectively. The “Permeability classification” value in data set [1] is on record as “highly permeable”. In data set [7], this molecule showed a D0 of at most 0.01. The “Papp PAMPA pH 7,4” value in [6] was 23.5 × 10^−6 cm/s. Also, the “Intrinsic Solubility” value in data set [9] is on record as 33.0 mg/mL. Besides, in data set [2], the “Papp Corti” value was 39.7 ×10⁻⁶ cm/s. Further, in data set [5], the “Papp Caco-2” value was 41.9 ×10⁻⁶ cm/s.

Take `CNC(=C[N+](=O)[O-])NCCSCc1ccc(CN(C)C)o1` [Ranitidine]: the apparent permeability (Papp) at 12 h, 10 mg/mL was determined as 6.81 ×10⁻⁶ cm/s in [1] (setting [12]) and 5.3 ×10⁻⁶ cm/s in data set [1] (setting [13]). This molecule also came in with a D0 in [7] of at most 0.01. The “Papp PAMPA pH 7,4” value in data set [6] was 0.5 × 10^−6 cm/s. Moreover, the “Intrinsic Solubility” value in data set [9] was 100.0 mg/mL. Besides, in data set [2], the “Papp Corti” value is 21.5 ×10⁻⁶ cm/s. Also, in data set [3], the “Log D pH 7.4” value was −0.3. The “Papp Caco-2” value in data set [5] is 0.5 ×10⁻⁶ cm/s.

As for `Cn1c(=O)c2[nH]cnc2n(C)c1=O` [Theophylline], the “Intrinsic Solubility” value in data set [9] is listed as 8.33 mg/mL. The “Log D pH 7.4” value in data set [3] was −0.05.

For the molecule `COc1cc(Cc2cnc(N)nc2N)cc(OC)c1OC` [Trimethoprim], the values for the Papp at 12 h, 10 mg/mL in [1] (setting [12]) and in [1] (setting [13]) were 6.61 ×10⁻⁶ cm/s and 7.7 ×10⁻⁶ cm/s, respectively. Moreover, in [8], the “Fa(%)” value is on record as 97%. Further, the “Papp PAMPA pH 7,4” value in [6] is 5.0 × 10^−6 cm/s. Moreover, in data set [2], the “Papp Corti” value is 45.5 ×10⁻⁶ cm/s. Further, in data set [5], the “Papp Caco-2” value is 83 ×10⁻⁶ cm/s.
